The nature of assay [1]: inhibitors of Bluetongue virus cytopathic effect, confirmation, arbovirus, BSR cells (AID 1250).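 Further: protection from viral cytopathic effect measured as cell viability by ATP luminescence.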 The assay is classed as functional.
In the next assay the target is Cytochrome P450 3A4 (Homo sapiens, UniProt P08684).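 Further: CYP3A4 tested as one member of a cytochrome P450 panel screen.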
In assay [2] the target is Peroxisome proliferator-activated receptor gamma/Nuclear receptor corepressor 2 (Homo sapiens, UniProt P37231+Q9Y618). It is filed as functional.
Chain of Peroxisome proliferator-activated receptor gamma/Nuclear receptor corepressor 2 (P37231 whole entry): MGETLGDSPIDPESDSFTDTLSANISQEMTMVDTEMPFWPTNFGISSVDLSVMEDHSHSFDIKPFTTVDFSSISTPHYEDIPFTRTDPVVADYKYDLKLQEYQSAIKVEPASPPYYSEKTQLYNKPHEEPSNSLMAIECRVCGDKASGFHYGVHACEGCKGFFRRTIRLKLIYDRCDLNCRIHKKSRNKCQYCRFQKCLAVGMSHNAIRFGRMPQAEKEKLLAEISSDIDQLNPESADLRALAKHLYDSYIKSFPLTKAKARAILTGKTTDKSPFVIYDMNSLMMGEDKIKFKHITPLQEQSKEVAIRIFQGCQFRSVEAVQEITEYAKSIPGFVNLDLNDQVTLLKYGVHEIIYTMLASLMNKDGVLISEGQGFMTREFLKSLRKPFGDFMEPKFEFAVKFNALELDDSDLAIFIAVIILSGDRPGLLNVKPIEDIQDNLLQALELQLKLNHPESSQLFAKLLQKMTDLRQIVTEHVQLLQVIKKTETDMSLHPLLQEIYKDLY
Chain of Peroxisome proliferator-activated receptor gamma/Nuclear receptor corepressor 2 (Q9Y618 whole entry): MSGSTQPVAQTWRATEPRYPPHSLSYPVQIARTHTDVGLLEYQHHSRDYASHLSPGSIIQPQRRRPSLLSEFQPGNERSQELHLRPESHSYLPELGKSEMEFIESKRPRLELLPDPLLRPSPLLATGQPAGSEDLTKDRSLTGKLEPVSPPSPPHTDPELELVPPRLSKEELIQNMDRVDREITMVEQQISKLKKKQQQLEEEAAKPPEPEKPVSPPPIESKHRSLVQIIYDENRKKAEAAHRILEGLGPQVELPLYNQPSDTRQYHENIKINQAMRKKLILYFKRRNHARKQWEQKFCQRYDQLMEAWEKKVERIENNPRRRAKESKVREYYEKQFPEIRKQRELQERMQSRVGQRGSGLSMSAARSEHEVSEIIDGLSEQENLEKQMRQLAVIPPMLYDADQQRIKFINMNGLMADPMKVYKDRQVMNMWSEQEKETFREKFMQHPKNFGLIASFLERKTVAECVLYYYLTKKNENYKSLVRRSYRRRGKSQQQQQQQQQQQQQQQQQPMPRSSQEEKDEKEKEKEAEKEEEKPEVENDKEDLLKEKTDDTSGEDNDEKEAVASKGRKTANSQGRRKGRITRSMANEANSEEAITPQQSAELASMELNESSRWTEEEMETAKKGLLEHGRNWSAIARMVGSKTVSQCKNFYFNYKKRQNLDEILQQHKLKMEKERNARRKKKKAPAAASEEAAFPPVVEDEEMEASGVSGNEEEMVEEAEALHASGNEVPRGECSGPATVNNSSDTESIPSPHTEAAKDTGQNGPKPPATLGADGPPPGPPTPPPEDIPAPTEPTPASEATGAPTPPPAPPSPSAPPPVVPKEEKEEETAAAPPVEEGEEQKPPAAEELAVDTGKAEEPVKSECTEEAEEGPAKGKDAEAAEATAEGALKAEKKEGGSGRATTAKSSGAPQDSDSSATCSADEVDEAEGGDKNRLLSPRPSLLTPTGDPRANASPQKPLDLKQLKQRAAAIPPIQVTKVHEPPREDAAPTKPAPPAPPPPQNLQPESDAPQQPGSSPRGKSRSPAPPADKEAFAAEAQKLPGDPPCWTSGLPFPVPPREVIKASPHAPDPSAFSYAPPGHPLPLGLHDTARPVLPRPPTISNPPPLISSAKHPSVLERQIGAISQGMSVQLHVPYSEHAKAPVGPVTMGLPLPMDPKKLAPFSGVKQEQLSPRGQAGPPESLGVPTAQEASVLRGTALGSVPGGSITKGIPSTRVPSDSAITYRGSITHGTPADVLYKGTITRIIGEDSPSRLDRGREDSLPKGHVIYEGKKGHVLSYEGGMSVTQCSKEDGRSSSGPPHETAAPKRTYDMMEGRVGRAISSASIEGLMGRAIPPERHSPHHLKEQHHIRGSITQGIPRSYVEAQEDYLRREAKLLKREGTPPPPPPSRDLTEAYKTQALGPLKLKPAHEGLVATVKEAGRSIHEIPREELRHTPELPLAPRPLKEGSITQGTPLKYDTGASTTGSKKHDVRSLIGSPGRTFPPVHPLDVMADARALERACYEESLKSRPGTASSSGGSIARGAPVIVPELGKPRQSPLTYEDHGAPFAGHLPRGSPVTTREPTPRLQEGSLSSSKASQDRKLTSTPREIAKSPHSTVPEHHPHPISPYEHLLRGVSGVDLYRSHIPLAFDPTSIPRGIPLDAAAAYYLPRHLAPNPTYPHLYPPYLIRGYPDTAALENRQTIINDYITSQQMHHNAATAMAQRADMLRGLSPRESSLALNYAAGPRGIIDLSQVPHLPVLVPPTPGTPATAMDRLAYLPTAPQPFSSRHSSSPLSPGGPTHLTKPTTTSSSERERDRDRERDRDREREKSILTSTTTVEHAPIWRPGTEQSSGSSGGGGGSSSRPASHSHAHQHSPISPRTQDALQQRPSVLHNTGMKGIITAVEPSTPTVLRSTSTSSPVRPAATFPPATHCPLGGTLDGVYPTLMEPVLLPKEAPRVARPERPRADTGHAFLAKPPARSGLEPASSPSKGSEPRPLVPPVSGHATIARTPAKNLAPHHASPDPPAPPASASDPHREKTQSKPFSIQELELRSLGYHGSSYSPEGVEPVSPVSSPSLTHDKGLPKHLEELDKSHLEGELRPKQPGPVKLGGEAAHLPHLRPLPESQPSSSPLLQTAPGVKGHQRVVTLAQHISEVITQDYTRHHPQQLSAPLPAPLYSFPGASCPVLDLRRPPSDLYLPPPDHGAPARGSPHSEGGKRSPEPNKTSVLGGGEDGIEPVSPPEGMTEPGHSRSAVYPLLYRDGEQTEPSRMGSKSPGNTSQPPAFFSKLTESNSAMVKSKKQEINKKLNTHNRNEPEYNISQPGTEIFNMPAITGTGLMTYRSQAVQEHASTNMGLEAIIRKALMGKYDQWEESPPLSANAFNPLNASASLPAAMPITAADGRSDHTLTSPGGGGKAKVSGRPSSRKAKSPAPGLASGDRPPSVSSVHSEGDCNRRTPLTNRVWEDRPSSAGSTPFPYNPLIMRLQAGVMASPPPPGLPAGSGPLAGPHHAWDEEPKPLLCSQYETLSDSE
The target of assay [3] is Photoreceptor-specific nuclear receptor (Homo sapiens, UniProt Q9Y5X4). It is filed as functional.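 Further: potency for compounds that break the NR2E3 corepressor complex and count as activators.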
Chain of Photoreceptor-specific nuclear receptor (Q9Y5X4 whole entry): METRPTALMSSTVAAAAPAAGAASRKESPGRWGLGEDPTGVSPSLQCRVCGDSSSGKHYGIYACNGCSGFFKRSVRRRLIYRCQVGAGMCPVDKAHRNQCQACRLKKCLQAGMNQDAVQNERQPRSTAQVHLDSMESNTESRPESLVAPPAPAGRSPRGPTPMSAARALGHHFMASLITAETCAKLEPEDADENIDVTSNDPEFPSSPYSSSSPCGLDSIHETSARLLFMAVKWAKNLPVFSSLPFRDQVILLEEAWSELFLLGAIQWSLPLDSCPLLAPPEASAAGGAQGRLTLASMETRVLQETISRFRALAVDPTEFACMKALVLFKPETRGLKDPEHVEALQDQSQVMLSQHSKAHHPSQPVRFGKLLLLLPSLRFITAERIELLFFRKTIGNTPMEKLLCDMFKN
A short description of assay [4]: LGR2 antagonists, dose response, cell-based, HEK293, CRE-luciferase reporter, cherry pick, set 2 (AID 743343).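 Further: transfected cells were stimulated with diluted bursicon conditioned medium after compound addition.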 The assay is classed as functional.
The target of another assay is T1, Estrogen receptor (Homo sapiens, UniProt P03372).
T1 sequence (P03372 whole entry): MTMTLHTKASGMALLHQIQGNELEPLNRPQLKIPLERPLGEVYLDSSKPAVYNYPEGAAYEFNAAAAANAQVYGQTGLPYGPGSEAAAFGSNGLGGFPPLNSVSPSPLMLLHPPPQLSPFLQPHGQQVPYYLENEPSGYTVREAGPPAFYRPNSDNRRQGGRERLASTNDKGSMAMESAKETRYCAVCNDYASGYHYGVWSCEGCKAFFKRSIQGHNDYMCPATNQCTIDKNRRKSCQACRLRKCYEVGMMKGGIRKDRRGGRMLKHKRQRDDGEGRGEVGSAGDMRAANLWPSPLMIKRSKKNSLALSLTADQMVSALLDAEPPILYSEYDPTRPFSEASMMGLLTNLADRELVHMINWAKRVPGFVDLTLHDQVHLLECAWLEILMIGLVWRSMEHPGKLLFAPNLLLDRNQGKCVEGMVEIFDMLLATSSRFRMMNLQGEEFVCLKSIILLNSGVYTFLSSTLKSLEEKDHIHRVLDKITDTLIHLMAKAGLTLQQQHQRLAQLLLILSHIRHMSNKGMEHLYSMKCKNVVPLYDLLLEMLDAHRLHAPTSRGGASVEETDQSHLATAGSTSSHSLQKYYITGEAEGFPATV
Briefly: potentiators of ERα–SRC-1 coactivator binding, dose response, biochemical, TR-FRET, ERα LBD (AID 737).

The nature of assay [5]: MC4R antagonists, dose response, counter-screen for LGR2 antagonist project, cell-based, plate reader, cherry pick (AID 743444).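 Further: transfected HEK 293 cells stimulated with alpha-MSH peptide; potency of inhibitors of the alpha-MSH evoked signal.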 The assay is classed as functional.
Another assay addresses T2, Protein skinhead-1 (Caenorhabditis elegans, UniProt P34707).
T2 sequence (P34707 whole entry): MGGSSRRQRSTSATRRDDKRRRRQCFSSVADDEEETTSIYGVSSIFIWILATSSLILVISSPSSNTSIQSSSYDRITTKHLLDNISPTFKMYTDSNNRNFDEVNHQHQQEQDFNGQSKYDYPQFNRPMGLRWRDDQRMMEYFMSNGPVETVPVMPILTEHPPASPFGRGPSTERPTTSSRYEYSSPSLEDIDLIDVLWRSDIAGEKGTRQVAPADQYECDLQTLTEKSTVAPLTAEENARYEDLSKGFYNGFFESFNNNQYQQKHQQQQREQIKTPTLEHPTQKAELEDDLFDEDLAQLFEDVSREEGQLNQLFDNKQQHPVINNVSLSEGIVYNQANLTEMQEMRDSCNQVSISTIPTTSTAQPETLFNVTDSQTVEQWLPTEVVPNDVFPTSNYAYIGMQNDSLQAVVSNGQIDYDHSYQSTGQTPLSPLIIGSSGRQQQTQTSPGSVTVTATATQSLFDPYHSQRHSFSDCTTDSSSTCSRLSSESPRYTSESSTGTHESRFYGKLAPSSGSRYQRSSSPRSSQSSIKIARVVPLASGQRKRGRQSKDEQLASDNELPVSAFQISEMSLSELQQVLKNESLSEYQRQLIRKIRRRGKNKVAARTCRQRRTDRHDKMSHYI
It is filed as functional.

The target in assay [6] is T3, Aryl hydrocarbon receptor (Homo sapiens, UniProt P35869).
T3 sequence (P35869 whole entry): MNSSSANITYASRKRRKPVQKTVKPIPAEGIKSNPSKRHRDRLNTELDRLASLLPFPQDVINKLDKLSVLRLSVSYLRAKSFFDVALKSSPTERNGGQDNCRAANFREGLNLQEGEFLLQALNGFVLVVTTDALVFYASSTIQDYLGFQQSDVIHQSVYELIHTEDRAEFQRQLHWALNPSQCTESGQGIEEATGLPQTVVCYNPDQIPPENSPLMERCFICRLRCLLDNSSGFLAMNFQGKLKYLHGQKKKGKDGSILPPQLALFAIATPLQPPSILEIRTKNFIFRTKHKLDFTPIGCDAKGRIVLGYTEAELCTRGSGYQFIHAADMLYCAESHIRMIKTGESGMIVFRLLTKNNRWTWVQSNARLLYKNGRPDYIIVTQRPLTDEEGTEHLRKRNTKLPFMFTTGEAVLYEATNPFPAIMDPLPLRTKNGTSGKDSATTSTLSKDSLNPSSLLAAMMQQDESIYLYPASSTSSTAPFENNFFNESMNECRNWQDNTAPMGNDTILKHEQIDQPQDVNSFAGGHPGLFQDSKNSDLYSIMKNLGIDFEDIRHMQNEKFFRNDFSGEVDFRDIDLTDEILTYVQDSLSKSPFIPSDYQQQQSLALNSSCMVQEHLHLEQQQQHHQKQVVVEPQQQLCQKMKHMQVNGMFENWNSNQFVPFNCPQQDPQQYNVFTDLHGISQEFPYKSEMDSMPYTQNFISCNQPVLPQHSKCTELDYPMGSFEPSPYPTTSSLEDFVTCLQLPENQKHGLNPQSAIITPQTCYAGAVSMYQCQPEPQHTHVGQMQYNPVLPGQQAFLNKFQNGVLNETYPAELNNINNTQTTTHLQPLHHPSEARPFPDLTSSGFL
Nature of the assay: Luminescence-based cell-based high throughput dose response assay for activators of the Aryl Hydrocarbon Receptor (AHR). [Related pubchem assays: 2796 (Primary screen (AHR activators in singlicate)), 2845 (Confirmation screen (AHR activators in triplicate)), 434939 (Counterscreen (PXR activators in triplicate)), 2804 (Summary (AHR activators))]. The assay is classed as ADME.

Assay [7] concerns the target DNA dC->dU-editing enzyme APOBEC-3A (Homo sapiens, UniProt P31941). Briefly: Dose Response confirmation of small molecule APOBEC3A DNA Deaminase Inhibitors via a fluorescence-based single-stranded DNA deaminase assay. [Related pubchem assays (depositor defined):AID493011, AID493024]. The assay is classed as functional.
The target in assay [8] is DNA dC->dU-editing enzyme APOBEC-3G (Homo sapiens, UniProt Q9HC16). It is filed as functional.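 Further: Dose-response counterscreen measuring inhibition of APOBEC3G DNA deaminase activity, run while confirming APOBEC3A inhibitors.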
Chain of DNA dC->dU-editing enzyme APOBEC-3G (Q9HC16 whole entry): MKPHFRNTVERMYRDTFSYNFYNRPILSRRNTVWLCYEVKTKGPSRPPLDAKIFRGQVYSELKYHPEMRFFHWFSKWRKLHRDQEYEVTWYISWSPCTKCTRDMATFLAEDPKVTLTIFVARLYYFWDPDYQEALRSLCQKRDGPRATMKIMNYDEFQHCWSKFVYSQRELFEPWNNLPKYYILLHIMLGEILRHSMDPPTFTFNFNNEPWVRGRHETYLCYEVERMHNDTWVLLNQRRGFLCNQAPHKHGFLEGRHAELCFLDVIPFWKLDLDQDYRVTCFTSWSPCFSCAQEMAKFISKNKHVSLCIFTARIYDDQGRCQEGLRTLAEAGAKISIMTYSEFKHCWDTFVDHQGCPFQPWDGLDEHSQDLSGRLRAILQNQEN
Assay [9] is described as follows: Luminescence Cell-Based Dose Response HTS to Identify Activators of Luciferase Translation or Activity in H4 […] Cells. [Related pubchem assays: 1829 (Project Summary), 1814 (Primary HTS)]. It is filed as functional.
Another assay relates to H4. Briefly: Luminescence Cell-Based Dose Response HTS to Identify Activators of 5'UTR Stem-Loop Driven Prion Protein mRNA Translation in H4 Neuroglioblastoma Cells. [Related pubchem assays: 1829 (Project Summary), 1814 (Primary HTS)]. It is filed as functional. Conditions: Homo sapiens.
The nature of assay [10]: Luminescence Cell-Based Dose Confirmation HTS to Identify Activators of 5'UTR Stem-Loop Driven Alpha-Synuclein mRNA Translation in H4 Neuroglioblastoma Cells. [Related pubchem assays: 1829 (Project Summary), 1814 (Primary HTS)]. The assay is classed as functional.
The target of assay [11] is T4, Mannose-6-phosphate isomerase (Homo sapiens, UniProt P34949).
T4 sequence (P34949 whole entry): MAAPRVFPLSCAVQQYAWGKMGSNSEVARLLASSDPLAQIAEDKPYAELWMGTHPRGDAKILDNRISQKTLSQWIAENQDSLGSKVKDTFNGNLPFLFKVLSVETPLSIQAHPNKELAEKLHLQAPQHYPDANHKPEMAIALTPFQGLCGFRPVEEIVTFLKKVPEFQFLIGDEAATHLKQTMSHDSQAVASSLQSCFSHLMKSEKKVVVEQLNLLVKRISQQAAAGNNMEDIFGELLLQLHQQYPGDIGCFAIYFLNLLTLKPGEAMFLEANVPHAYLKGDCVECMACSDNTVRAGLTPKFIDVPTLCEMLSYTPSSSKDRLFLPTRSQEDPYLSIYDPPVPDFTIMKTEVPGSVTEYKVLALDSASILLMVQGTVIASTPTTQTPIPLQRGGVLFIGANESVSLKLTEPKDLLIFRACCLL
Briefly: human PMI inhibitors, high substrate, primary screen, biochemical, fluorescence intensity, high mannose 6-phosphate (AID 1220).

The target of assay [12] is T4, Mannose-6-phosphate isomerase. Nature of the assay: inhibitors of human PMI, primary screen, biochemical, fluorescence intensity, coupled assay (AID 1209).
Another assay relates to Streptococcus. Nature of the assay: Group A Streptococcus viability loss, dose response, counter-screen for streptokinase expression inhibitor project, luminescence, BacTiterGlo (AID 1915).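 Further: potency for reduction of bacterial viability or growth.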 It is filed as functional, organism-based.
For assay [13], the system named is Streptococcus sp. 'group A'. Briefly: growth inhibition of control SK(-) GAS strain, dose response, counter-screen for streptokinase expression inhibitor project, luminescence, kanamycin, BacTiterGlo, confirmation (AID 1900). It is filed as functional, organism-based.
The target of a further assay is T5, Streptokinase A (Streptococcus pyogenes serotype M1, UniProt P10520).
T5 sequence (P10520 whole entry): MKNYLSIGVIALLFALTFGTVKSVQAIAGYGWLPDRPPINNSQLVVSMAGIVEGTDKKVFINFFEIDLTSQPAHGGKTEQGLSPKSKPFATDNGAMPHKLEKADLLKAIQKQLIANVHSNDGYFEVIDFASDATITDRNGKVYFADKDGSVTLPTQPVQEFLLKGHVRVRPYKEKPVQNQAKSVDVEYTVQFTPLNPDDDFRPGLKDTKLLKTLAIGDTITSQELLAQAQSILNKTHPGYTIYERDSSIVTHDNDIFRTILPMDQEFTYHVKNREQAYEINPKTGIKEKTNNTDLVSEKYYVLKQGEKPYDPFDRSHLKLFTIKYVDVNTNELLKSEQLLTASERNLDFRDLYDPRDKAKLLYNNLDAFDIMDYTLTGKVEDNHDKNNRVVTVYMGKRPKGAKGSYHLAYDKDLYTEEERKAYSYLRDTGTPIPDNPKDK
Nature of the assay: S. pyogenes streptokinase expression inhibitors, potency, dose response, plasminogen activation absorbance, OD405 (AID 1914).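 Further: secreted streptokinase activity via plasminogen activation per viability signal from cell pellet.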 The assay is classed as functional, Streptococcus pyogenes M1 GAS.

Assay [14] in a line: THP-1 cell cytotoxicity, dose response, cytotoxicity control for Vif-APOBEC3G degradation inhibitor project, THP-1 cells (AID 1117359). The assay is classed as functional. The following applies: Human immunodeficiency virus 1, THP-1.

The structures appear in SMILES notation. Active and inactive are the calls of the source. A value given as a limit tells only on which side of the number the result lay.

Chain of DNA dC->dU-editing enzyme APOBEC-3A (P31941 whole entry): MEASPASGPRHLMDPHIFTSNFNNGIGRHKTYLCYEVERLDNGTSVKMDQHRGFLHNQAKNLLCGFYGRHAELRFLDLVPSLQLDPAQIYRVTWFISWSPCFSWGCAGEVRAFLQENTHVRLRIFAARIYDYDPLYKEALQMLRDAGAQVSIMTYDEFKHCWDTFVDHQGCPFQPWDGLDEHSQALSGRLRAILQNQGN
Chain of Cytochrome P450 3A4 (P08684 whole entry): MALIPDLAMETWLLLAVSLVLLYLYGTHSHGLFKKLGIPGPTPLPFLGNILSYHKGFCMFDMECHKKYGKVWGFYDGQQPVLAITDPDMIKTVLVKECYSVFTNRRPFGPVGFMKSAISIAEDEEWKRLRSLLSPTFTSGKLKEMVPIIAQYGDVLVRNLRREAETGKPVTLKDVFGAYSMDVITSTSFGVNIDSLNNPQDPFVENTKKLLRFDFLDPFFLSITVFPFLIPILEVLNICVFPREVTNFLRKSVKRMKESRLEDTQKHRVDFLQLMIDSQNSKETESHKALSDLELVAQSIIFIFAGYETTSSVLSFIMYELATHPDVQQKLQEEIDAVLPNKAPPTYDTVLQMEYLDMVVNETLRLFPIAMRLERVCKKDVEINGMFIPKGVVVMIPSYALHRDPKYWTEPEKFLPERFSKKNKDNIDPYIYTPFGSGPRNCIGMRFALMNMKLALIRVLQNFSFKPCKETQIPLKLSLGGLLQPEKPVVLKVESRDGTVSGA

With `C=CCSc1nc(O)c2sc3nc(C)cc(C)c3c2n1`, in assay [1], the 50% inhibitory concentration (IC50) is 25.4 µM (active). Moreover, at Cytochrome P450 3A4, the AC50 was 11.2 µM (inconclusive).
For `COCCCN1C(=O)C(O)=C(C(=O)c2ccc(C)o2)C1c1cccc(Br)c1` (stereo not drawn), the results for the IC50 in assay [2] and in [3] were 11.1 µM (not active) and > 39.8 µM (not active), respectively.
For the compound `O=c1oc(-c2cccs2)nc2scc(-c3cccs3)c12`, the IC50 in assay [1] is 24.2 µM (active).
Consider `O=C(Nc1cccnc1)c1cc(-c2ccc3c(c2)OCO3)on1`, for which the AC50 in assay [4] is 5.5 µM (active); in assay [5] it was 5.56 µM (active). For the same compound, the EC50 on Estrogen receptor is 12.9 µM (not active). Also, on Protein skinhead-1, the IC50 is > 100 µM (inactive).
With `Cc1nnc(N2C(=O)c3cccc4c([N+](=O)[O-])ccc(c34)C2=O)s1`, in assay [6], the EC50 is 0.733 µM (active).
Regarding `CCn1c(SCC(=O)Nc2cccc(F)c2)nnc1-c1cc2cc(Br)ccc2o1`, the IC50 in [7] is 2.82 µM (active); in assay [8], 5.3 µM (active). Also, the EC50 at Estrogen receptor is 11.1 µM (active); in assay [9] it was 10.8 µM (active); in the assay with H4, > 120 µM (not active); in assay [10], > 120 µM (not active).
For the compound `Cc1ccc(/N=C/c2cccc(O)c2O)c(C)c1`, the 50% inhibitory concentration (IC50) was 14 µM (active) in [11] and 23.3 µM (active) in assay [12]. For the same compound, the EC50 with Streptococcus is 7.41 µM (active); in [13] it was > 150 µM (not active); on Streptokinase A it was > 150 µM (not active).
As to `Cc1cc(Nc2ccc(Br)cc2)n2nc(C)nc2n1`, the EC50 in assay [6] is 0.117 µM (active). In addition, the half-maximal cytotoxic concentration (CC50) in [14] was > 40 µM (active).
